In patent US10881106B2, “Herbicidal pyridazinone compounds” (SYNGENTA PARTICIPATIONS AG, priority 2016, dated 2021):

Experiments:
Assay type in all cases: in vivo
Zea mays (ZEAMX) = assay: Post-emergence glasshouse herbicide test, percentage damage to crop plant; details: POST Application, 125 g/ha, evaluated after 14 days; crop (corn)
Procedure: (§1) Seeds of a variety of test species were sown in standard soil in pots (Amaranthus retoflexus (AMARE), Abutilon theophrasti (ABUTH), Digitaria sanguinalis (DIGSA), Setaria faberi (SETFA) and Zea mays (ZEAMX). After cultivation for 10 days under controlled conditions in a glasshouse (at 24/16° C., day/night; 14 hours light; 65% humidity), the plants were sprayed with an aqueous spray solution derived from the formulation of the technical active ingredient in 0.6 ml acetone and 45 ml formulation solution containing 10.6% Emulsogen EL (Registry number 61791-12-6), 42.2% N-methyl pyrrolidone, 42.2% dipropylene glycol monomethyl ether (CAS RN 34590-94-8) and 0.2% X-77 (CAS RN 11097-66-8). The test plants were then grown in a glasshouse under controlled conditions in a glasshouse (at 24/16° C., day/night; 14 hours light; 65% humidity) and watered twice daily. After 14 days the test is evaluated for the percentage damage caused to the plant. The biological activities are shown in the following table on a five point scale (5=80-100%; 4=60-79%; 3=40-59%; 2=20-39%; 1=0-19%).

Setaria faberi (SETFA) = assay: Post-emergence glasshouse herbicide test, percentage damage to plant; details: POST Application, 125 g/ha, evaluated after 14 days
Procedure: as §1

[1] = tested on: Abutilon theophrasti (ABUTH); assay: as above; details: POST Application, 125 g/ha, evaluated after 14 days
Procedure: as §1

[2] = tested on: Amaranthus retoflexus (AMARE); assay: as above; details: POST Application, 125 g/ha, evaluated after 14 days
Procedure: as §1

[3] = tested on: Digitaria sanguinalis (DIGSA); assay: as above; details: POST Application, 125 g/ha, evaluated after 14 days
Procedure: as §1

With `Cc1cc(C(=O)C2=C(O)CCCC2=O)c(=O)n(CC(=O)N(C)C)n1` [Compound 1.001] the “ZEAMX percentage damage caused to the plant (five point scale)” value (“ZEAMX percentage damage caused” below) (Zea mays (ZEAMX)) was 1 (1=0-19%), the “SETFA percentage damage caused to the plant (five point scale)” value (“SETFA percentage damage caused” below) (Setaria faberi (SETFA)) was 5 (5=80-100%) and the “ABUTH percentage damage caused to the plant (five point scale)” value (“ABUTH percentage damage caused” below) [1] was 5 (5=80-100%). The “AMARE percentage damage caused to the plant (five point scale)” value (“AMARE percentage damage caused” below) [2] was 5 (5=80-100%) and the “DIGSA percentage damage caused to the plant (five point scale)” value (“DIGSA percentage damage caused” below) [3] was 5 (5=80-100%).

In the case of `Cc1cc(C(=O)C2=C([O-])CCCC2=O)c(=O)n(CCOC(=O)N2CCCC2)n1.[Na+]` [Compound 1.024], the “ZEAMX percentage damage caused” value (Zea mays (ZEAMX)) is reported as 1 (1=0-19%), the “SETFA percentage damage caused” value (Setaria faberi (SETFA)) is reported as 5 (5=80-100%) and the “ABUTH percentage damage caused” value [1] is reported as 2 (2=20-39%). For the same compound, the “AMARE percentage damage caused” value [2] was 4 (4=60-79%) and the “DIGSA percentage damage caused” value [3] was 5 (5=80-100%).

With `Cc1cc(C(=O)C2=C([O-])CC(C)CC2=O)c(=O)n(CCC(=O)N(C)CC(F)(F)F)n1.[Na+]` (stereo not drawn) [Compound 1.020] the “ZEAMX percentage damage caused” value (Zea mays (ZEAMX)) was 1 (1=0-19%), the “SETFA percentage damage caused” value (Setaria faberi (SETFA)) was 5 (5=80-100%) and the “ABUTH percentage damage caused” value [1] was 5 (5=80-100%). The “AMARE percentage damage caused” value [2] was 4 (4=60-79%) and the “DIGSA percentage damage caused” value [3] was 5 (5=80-100%).

With `Cc1cc(C(=O)C2=C([O-])CCCC2=O)c(=O)n(CCOC(=O)N2CCOCC2)n1.[Na+]` [Compound 1.025] the “ZEAMX percentage damage caused” value (Zea mays (ZEAMX)) was 1 (1=0-19%), the “SETFA percentage damage caused” value (Setaria faberi (SETFA)) was 5 (5=80-100%) and the “ABUTH percentage damage caused” value [1] was 5 (5=80-100%). The “AMARE percentage damage caused” value [2] was 5 (5=80-100%) and the “DIGSA percentage damage caused” value [3] was 5 (5=80-100%).

In the case of `CN(C)C(=O)CCn1nc(C2CC2)cc(C(=O)C2=C([O-])CCCC2=O)c1=O.[Na+]` [Compound 1.016], the “ZEAMX percentage damage caused” value (Zea mays (ZEAMX)) is reported as 1 (1=0-19%), the “SETFA percentage damage caused” value (Setaria faberi (SETFA)) is reported as 4 (4=60-79%) and the “ABUTH percentage damage caused” value [1] is reported as 5 (5=80-100%). The “AMARE percentage damage caused” value [2] was 5 (5=80-100%) and the “DIGSA percentage damage caused” value [3] was 5 (5=80-100%).

For `Cc1cc(C(=O)C2=C([O-])CCCC2=O)c(=O)n(CCC(=O)N(C)C)n1.[Na+]` [Compound 1.002, sodium 2-[2-[3-(dimethylamino)-3-oxo-propyl]-6-methyl-3-oxo-pyridazine-4-carbonyl]-3-oxo-cyclohexen-1-olate], the “ZEAMX percentage damage caused” value (Zea mays (ZEAMX)) was 1 (1=0-19%), the “SETFA percentage damage caused” value (Setaria faberi (SETFA)) was 5 (5=80-100%) and the “ABUTH percentage damage caused” value [1] was 5 (5=80-100%). For the same compound, the “AMARE percentage damage caused” value [2] was 5 (5=80-100%) and the “DIGSA percentage damage caused” value [3] was 5 (5=80-100%).

With `CNC(=O)OCCn1nc(C)cc(C(=O)C2=C(O)CCCC2=O)c1=O` [Compound 1.008] the “ZEAMX percentage damage caused” value (Zea mays (ZEAMX)) was 1 (1=0-19%), the “SETFA percentage damage caused” value (Setaria faberi (SETFA)) was 5 (5=80-100%) and the “ABUTH percentage damage caused” value [1] was 5 (5=80-100%). For the same compound, the “AMARE percentage damage caused” value [2] was 5 (5=80-100%) and the “DIGSA percentage damage caused” value [3] was 5 (5=80-100%).

In the case of `Cc1cc(C(=O)C2=C([O-])CCCC2=O)c(=O)n(CCOC(=O)N(C)CC(F)(F)F)n1.[Na+]` [Compound 1.023], the “ZEAMX percentage damage caused” value (Zea mays (ZEAMX)) is reported as 1 (1=0-19%), the “SETFA percentage damage caused” value (Setaria faberi (SETFA)) is reported as 5 (5=80-100%) and the “ABUTH percentage damage caused” value [1] is reported as 3 (3=40-59%). The “AMARE percentage damage caused” value [2] was 3 (3=40-59%) and the “DIGSA percentage damage caused” value [3] was 5 (5=80-100%).

`Cc1cc(C(=O)C2=C([O-])CCCC2=O)c(=O)n(CCC(=O)N(C)CC(F)(F)F)n1.[Na+]` [Compound 1.014] was tested, and the “ZEAMX percentage damage caused” value (Zea mays (ZEAMX)) was 1 (1=0-19%), the “SETFA percentage damage caused” value (Setaria faberi (SETFA)) was 5 (5=80-100%) and the “ABUTH percentage damage caused” value [1] was 5 (5=80-100%). For the same compound, the “AMARE percentage damage caused” value [2] was 5 (5=80-100%) and the “DIGSA percentage damage caused” value [3] was 5 (5=80-100%).

`Cc1cc(C(=O)C2=C(O)CCCC2=O)c(=O)n(CCOC(=O)N(C)C)n1` [Compound 1.009] was tested, and the “ZEAMX percentage damage caused” value (Zea mays (ZEAMX)) was 1 (1=0-19%), the “SETFA percentage damage caused” value (Setaria faberi (SETFA)) was 4 (4=60-79%) and the “ABUTH percentage damage caused” value [1] was 5 (5=80-100%). For the same compound, the “AMARE percentage damage caused” value [2] was 5 (5=80-100%) and the “DIGSA percentage damage caused” value [3] was 5 (5=80-100%).

`CCN(CC)C(=O)OCCn1nc(C)cc(C(=O)C2=C([O-])CCCC2=O)c1=O.[Na+]` [Compound 1.021] was tested, and the “ZEAMX percentage damage caused” value (Zea mays (ZEAMX)) was 1 (1=0-19%), the “SETFA percentage damage caused” value (Setaria faberi (SETFA)) was 5 (5=80-100%) and the “ABUTH percentage damage caused” value [1] was 5 (5=80-100%). The “AMARE percentage damage caused” value [2] was 4 (4=60-79%) and the “DIGSA percentage damage caused” value [3] was 5 (5=80-100%).

With `CCN(C)C(=O)CCn1nc(C)cc(C(=O)C2=C([O-])CCCC2=O)c1=O.[Na+]` [Compound 1.013] the “ZEAMX percentage damage caused” value (Zea mays (ZEAMX)) was 1 (1=0-19%), the “SETFA percentage damage caused” value (Setaria faberi (SETFA)) was 5 (5=80-100%) and the “ABUTH percentage damage caused” value [1] was 5 (5=80-100%). For the same compound, the “AMARE percentage damage caused” value [2] was 5 (5=80-100%) and the “DIGSA percentage damage caused” value [3] was 5 (5=80-100%).

`CNC(=O)CCn1nc(C)cc(C(=O)C2=C(O)CCCC2=O)c1=O` [Compound 1.006] was tested, and the “ZEAMX percentage damage caused” value (Zea mays (ZEAMX)) was 1 (1=0-19%), the “SETFA percentage damage caused” value (Setaria faberi (SETFA)) was 5 (5=80-100%) and the “ABUTH percentage damage caused” value [1] was 4 (4=60-79%). The “AMARE percentage damage caused” value [2] was 5 (5=80-100%) and the “DIGSA percentage damage caused” value [3] was 5 (5=80-100%).

For `Cc1cc(C(=O)C2=C(O)CCCC2=O)c(=O)n(CCC(=O)N2CCOCC2)n1` [Compound 1.004], the “ZEAMX percentage damage caused” value (Zea mays (ZEAMX)) was 1 (1=0-19%), the “SETFA percentage damage caused” value (Setaria faberi (SETFA)) was 5 (5=80-100%) and the “ABUTH percentage damage caused” value [1] was 5 (5=80-100%). The “AMARE percentage damage caused” value [2] was 5 (5=80-100%) and the “DIGSA percentage damage caused” value [3] was 5 (5=80-100%).

`Cc1cc(C(=O)C2=C([O-])CCCC2=O)c(=O)n(C(C)C(=O)N(C)C)n1.[Na+]` (stereo not drawn) [Compound 1.029] was tested, and the “ZEAMX percentage damage caused” value (Zea mays (ZEAMX)) was 1 (1=0-19%), the “SETFA percentage damage caused” value (Setaria faberi (SETFA)) was 5 (5=80-100%) and the “ABUTH percentage damage caused” value [1] was 5 (5=80-100%). For the same compound, the “AMARE percentage damage caused” value [2] was 5 (5=80-100%) and the “DIGSA percentage damage caused” value [3] was 5 (5=80-100%).

`Cc1cc(C(=O)C2=C([O-])CCCC2=O)c(=O)n(CC(F)(F)C(=O)N(C)C)n1.[Na+]` [Compound 1.018] was tested, and the “ZEAMX percentage damage caused” value (Zea mays (ZEAMX)) was 1 (1=0-19%), the “SETFA percentage damage caused” value (Setaria faberi (SETFA)) was 5 (5=80-100%) and the “ABUTH percentage damage caused” value [1] was 5 (5=80-100%). The “AMARE percentage damage caused” value [2] was 5 (5=80-100%) and the “DIGSA percentage damage caused” value [3] was 5 (5=80-100%).

In the case of `Cc1cc(C(=O)C2=C([O-])CC(C)CC2=O)c(=O)n(CCOC(=O)N(C)C)n1.[Na+]` (stereo not drawn) [Compound 1.026], the “ZEAMX percentage damage caused” value (Zea mays (ZEAMX)) is reported as 1 (1=0-19%), the “SETFA percentage damage caused” value (Setaria faberi (SETFA)) is reported as 5 (5=80-100%) and the “ABUTH percentage damage caused” value [1] is reported as 5 (5=80-100%). The “AMARE percentage damage caused” value [2] was 5 (5=80-100%) and the “DIGSA percentage damage caused” value [3] was 5 (5=80-100%).

In the case of `Cc1cc(C(=O)C2=C([O-])CC(C)(C)CC2=O)c(=O)n(CCOC(=O)N(C)C)n1.[Na+]` [Compound 1.027], the “ZEAMX percentage damage caused” value (Zea mays (ZEAMX)) is reported as 1 (1=0-19%), the “SETFA percentage damage caused” value (Setaria faberi (SETFA)) is reported as 5 (5=80-100%) and the “ABUTH percentage damage caused” value [1] is reported as 5 (5=80-100%). The “AMARE percentage damage caused” value [2] was 5 (5=80-100%) and the “DIGSA percentage damage caused” value [3] was 5 (5=80-100%).

With `CCN(C)C(=O)OCCn1nc(C)cc(C(=O)C2=C([O-])CCCC2=O)c1=O.[Na+]` [Compound 1.022] the “ZEAMX percentage damage caused” value (Zea mays (ZEAMX)) was 1 (1=0-19%), the “SETFA percentage damage caused” value (Setaria faberi (SETFA)) was 5 (5=80-100%) and the “ABUTH percentage damage caused” value [1] was 5 (5=80-100%). The “AMARE percentage damage caused” value [2] was 5 (5=80-100%) and the “DIGSA percentage damage caused” value [3] was 5 (5=80-100%).

`Cc1cc(C(=O)C2=C([O-])CC(C)CC2=O)c(=O)n(CCC(=O)N(C)C)n1.[Na+]` (stereo not drawn) [Compound 1.010] was tested, and the “ZEAMX percentage damage caused” value (Zea mays (ZEAMX)) was 1 (1=0-19%), the “SETFA percentage damage caused” value (Setaria faberi (SETFA)) was 5 (5=80-100%) and the “ABUTH percentage damage caused” value [1] was 5 (5=80-100%). For the same compound, the “AMARE percentage damage caused” value [2] was 5 (5=80-100%) and the “DIGSA percentage damage caused” value [3] was 5 (5=80-100%).

In the case of `CCN(CC)C(=O)CCn1nc(C)cc(C(=O)C2=C(O)CCCC2=O)c1=O` [Compound 1.007], the “ZEAMX percentage damage caused” value (Zea mays (ZEAMX)) is reported as 1 (1=0-19%), the “SETFA percentage damage caused” value (Setaria faberi (SETFA)) is reported as 5 (5=80-100%) and the “ABUTH percentage damage caused” value [1] is reported as 5 (5=80-100%). The “AMARE percentage damage caused” value [2] was 5 (5=80-100%) and the “DIGSA percentage damage caused” value [3] was 5 (5=80-100%).
